The record followed here is patent EP2439195B1, “NAPHTHALENE CARBOXAMIDE DERIVATIVES AS INHIBITORS OF PROTEIN KINASE AND HISTONE DEACETYLASE, PREPARATION METHODS AND USES THEREOF” (Shenzhen Chipscreen Biosciences, Ltd., priority 2009, dated 2010).

One assay addresses T1, human PDGFRβ (Homo sapiens, UniProt P09619).
T1 construct: expressed in transfected cells
Nature of the assay: PDGF dependent cell proliferation (MTS). The format is cell-based. As to conditions: PDGFRβ NIH-3T3 cells, PDGF BB (50ng/ml), 72 hours, serum-free medium; read-out: Gl50 nM (PDGF ligand-dependent cell proliferation).

Another assay deals with A-498. Briefly: Tumor cell proliferation (MTS), A-498. The format is cell-based. Conditions: Homo sapiens, A498; A-498, 72 hours; read-out: Gl50 µM in A-498.
Another assay relates to total HDAC enzyme. Nature of the assay: In vitro total HDAC enzyme activity (HDAC Fluorimetric Assay/Drug Discovery Kit, HeLa cell nuclear extract). The format is biochemical.
For a further assay, the system named is Class I HDAC. Briefly: HDAC subtype selectivity reporter gene assay (P21 reporter, HeLa cells). The class given is cell-based. As to conditions: Homo sapiens; 10µM; HeLa cells, 24 hours; read-out: Class I HDAC (P21 reporter assay) Fold Induction at 10µM. Put shortly: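 HeLa cells transiently transfected with a luciferase reporter driven by a p21 promoter or response element, with a cotransfected GFP plasmid for normalisation. Compounds or DMSO added 24 h post-transfection; luciferase measured in lysates after a further 24 h.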
A general note: In a reporter assay the amount or activity of a reporter protein is the signal.

The next assay concerns Bel-7402. Nature of the assay: Tumor cell proliferation (MTS), Bel-7402. Conditions: Homo sapiens; Bel-7402, 72 hours; read-out: Gl50 µM in Bel-7402. The class given is cell-based.
A further assay has as its system MCF-7. Briefly: Tumor cell proliferation (MTS), MCF-7. The class given is cell-based. As to conditions: Homo sapiens, MCF7; MCF-7, 72 hours; read-out: Gl50 µM in MCF-7.
The test system of a further assay is HUVEC cells. Briefly: VEGF dependent cell proliferation (MTS). As to conditions: Homo sapiens, VEGF 165 (50ng/ml), 72 hours, serum-free medium, read-out: Gl50 nM (VEGF ligand-dependent cell proliferation). The format is cell-based.
The next assay deals with A549. Briefly: Tumor cell proliferation (MTS), A549. Conditions: Homo sapiens; A549, 72 hours; read-out: Gl50 µM in A549. The class given is cell-based.
The next assay relates to HCT-8. Nature of the assay: Tumor cell proliferation (MTS), HCT-8. The format is cell-based. Conditions: Homo sapiens; HCT-8, 72 hours; read-out: Gl50 µM in HCT-8.

T1 sequence (P09619 33-1106): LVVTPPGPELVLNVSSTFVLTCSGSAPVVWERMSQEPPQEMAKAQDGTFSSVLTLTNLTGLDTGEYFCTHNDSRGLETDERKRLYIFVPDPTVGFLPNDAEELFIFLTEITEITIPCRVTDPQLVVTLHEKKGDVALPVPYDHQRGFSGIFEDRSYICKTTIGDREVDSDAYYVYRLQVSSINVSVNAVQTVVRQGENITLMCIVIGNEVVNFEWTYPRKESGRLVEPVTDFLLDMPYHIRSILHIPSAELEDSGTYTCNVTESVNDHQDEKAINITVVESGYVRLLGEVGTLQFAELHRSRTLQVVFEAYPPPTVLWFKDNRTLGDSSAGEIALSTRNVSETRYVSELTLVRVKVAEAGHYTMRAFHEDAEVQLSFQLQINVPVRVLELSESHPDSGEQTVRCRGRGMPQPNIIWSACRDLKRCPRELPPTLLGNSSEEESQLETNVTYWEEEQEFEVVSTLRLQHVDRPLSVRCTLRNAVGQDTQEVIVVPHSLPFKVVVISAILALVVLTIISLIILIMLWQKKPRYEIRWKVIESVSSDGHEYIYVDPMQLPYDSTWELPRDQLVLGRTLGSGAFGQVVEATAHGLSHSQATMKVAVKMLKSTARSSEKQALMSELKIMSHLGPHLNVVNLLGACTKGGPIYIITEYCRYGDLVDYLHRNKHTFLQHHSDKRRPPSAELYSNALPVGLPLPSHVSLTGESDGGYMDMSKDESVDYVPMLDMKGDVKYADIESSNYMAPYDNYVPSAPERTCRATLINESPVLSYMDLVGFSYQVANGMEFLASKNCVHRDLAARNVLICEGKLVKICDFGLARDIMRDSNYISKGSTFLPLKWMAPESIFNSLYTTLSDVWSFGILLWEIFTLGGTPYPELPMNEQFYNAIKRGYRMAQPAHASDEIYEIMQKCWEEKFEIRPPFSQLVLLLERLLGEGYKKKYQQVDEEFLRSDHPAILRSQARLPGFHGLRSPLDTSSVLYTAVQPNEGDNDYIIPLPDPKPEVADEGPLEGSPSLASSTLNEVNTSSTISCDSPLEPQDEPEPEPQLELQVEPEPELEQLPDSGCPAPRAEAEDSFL

Consider `COc1ccc2c(Oc3ccc4c(C(=O)Nc5ccccc5N)cccc4c3)ccnc2c1` [Compound 31, N-(2-aminophenyl)-6-(7-methoxyquinolin-4-yloxy)-1-naphthamide], for which the IC50 at human PDGFRβ was found to be 46 nM; with A-498, 9500 nM; with Bel-7402 it was 30000 nM; with MCF-7 it was 10200 nM; with HUVEC cells, 5 nM; in the assay on A549, 17300 nM. For the same compound, the IC50 with HCT-8 came out at 6600 nM. Also, the “% inhibition of total HDAC enzyme activity at 30µM” value with total HDAC enzyme is given as 10.1%. Also, the fold induction at 10 µM with Class I HDAC was 1.6.
As to `COc1ccc2c(Oc3ccc4c(C(=O)NCc5ccc(C(=O)Nc6ccccc6N)cc5)cccc4c3)ccnc2c1` [Compound 33, N-(4-((2-aminophenyl)carbamoyl)benzyl)-6-(7-methoxyquinolin-4-yloxy)-1-naphthamide], the IC50 was 300 nM at human PDGFRβ; 1900 nM in the assay on A-498; 2800 nM with Bel-7402; 2000 nM in the assay with MCF-7; 8 nM in the assay with HUVEC cells; 2100 nM in the assay on A549. In addition, in the assay with HCT-8, the IC50 was 1500 nM. The “% inhibition of total HDAC enzyme activity at 30µM” value in the assay with total HDAC enzyme was 39.1%. Further, the fold induction at 10 µM with Class I HDAC is 2.8.
